# In patent publication US8211662B2, “Nitroreductase enzymatic substrates” (Biomerieux, priority 2007, dated 2012):
# What was measured:
# Assay in all cases: Nitroreductase detection on Columbia agar, colonies read under UV
# [1] = test system: Bacillus subtilis NCTC 9372; format: cell-based; parameters: key: − = no fluorescence detected; +/− = weak fluorescence; + = medium fluorescence; ++ = strong fluorescence; settings: Table 3; 100 mg/l in Columbia agar, 24 h 37° C., UV 360-365 nm
# Procedure: (§1) A mass of 40 mg of each substrate was dissolved in 4 ml of dimethylformamide (DMF). This solution was entirely taken up in 400 ml of Columbia agar autoclaved beforehand and kept molten at 50° C. The final concentration for each substrate was 100 mg/l.
# (§2) Each of the media was distributed into Petri dishes 90 mm in diameter, in a proportion of 20 ml per dish.
# (§3) 18 microorganism strains derived from collections and belonging to various species of bacteria and of yeasts were inoculated onto these media by semi-quantitative isolation of 10 μl of a suspension at 0.5 McFarland diluted to 1/20. The media were incubated for 24 hours at 37° C., then the colonies formed were examined visually under UV illumination at 360-365 nm.
# [2] = test system: Staphylococcus epidermidis NCTC 11047; format: cell-based; parameters: key: − = no fluorescence detected; +/− = weak fluorescence; + = medium fluorescence; ++ = strong fluorescence; settings: Table 3; 100 mg/l in Columbia agar, 24 h 37° C., UV 360-365 nm
# Procedure: as §1, §2, §3
# [3] = test system: Yersinia enterocolitica NCTC 11176; format: cell-based; parameters: key: − = no fluorescence detected; +/− = weak fluorescence; + = medium fluorescence; ++ = strong fluorescence; settings: Table 3; 100 mg/l in Columbia agar, 24 h 37° C., UV 360-365 nm
# Procedure: as §1, §2, §3
# [4] = test system: Candida albicans ATCC 90028; format: cell-based; parameters: key: − = no fluorescence detected; +/− = weak fluorescence; + = medium fluorescence; ++ = strong fluorescence; settings: Table 3; 100 mg/l in Columbia agar, 24 h 37° C., UV 360-365 nm
# Procedure: as §1, §2, §3
# [5] = test system: Listeria monocytogenes NCTC 11994; format: cell-based; parameters: key: − = no fluorescence detected; +/− = weak fluorescence; + = medium fluorescence; ++ = strong fluorescence; settings: Table 3; 100 mg/l in Columbia agar, 24 h 37° C., UV 360-365 nm
# Procedure: as §1, §2, §3
# [6] = test system: Staphylococcus aureus NCTC 6571; format: cell-based; parameters: key: − = no fluorescence detected; +/− = weak fluorescence; + = medium fluorescence; ++ = strong fluorescence; settings: Table 3; 100 mg/l in Columbia agar, 24 h 37° C., UV 360-365 nm
# Procedure: as §1, §2, §3
# [7] = test system: Providencia rettgeri NCTC 7475; format: cell-based; parameters: key: − = no fluorescence detected; +/− = weak fluorescence; + = medium fluorescence; ++ = strong fluorescence; settings: Table 3; 100 mg/l in Columbia agar, 24 h 37° C., UV 360-365 nm
# Procedure: as §1, §2, §3
# [8] = test system: Burkholderia cepacia 1222; format: cell-based; parameters: key: − = no fluorescence detected; +/− = weak fluorescence; + = medium fluorescence; ++ = strong fluorescence; settings: Table 3; 100 mg/l in Columbia agar, 24 h 37° C., UV 360-365 nm
# Procedure: as §1, §2, §3
# [9] = test system: Enterobacter cloacae NCTC 11936; format: cell-based; parameters: key: − = no fluorescence detected; +/− = weak fluorescence; + = medium fluorescence; ++ = strong fluorescence; settings: Table 3; 100 mg/l in Columbia agar, 24 h 37° C., UV 360-365 nm
# Procedure: as §1, §2, §3
# [10] = test system: Pseudomonas aeruginosa NCTC 10662; format: cell-based; parameters: key: − = no fluorescence detected; +/− = weak fluorescence; + = medium fluorescence; ++ = strong fluorescence; settings: Table 3; 100 mg/l in Columbia agar, 24 h 37° C., UV 360-365 nm
# Procedure: as §1, §2, §3
# [11] = test system: Streptococcus pyogenes NCTC 8306; format: cell-based; parameters: key: − = no fluorescence detected; +/− = weak fluorescence; + = medium fluorescence; ++ = strong fluorescence; settings: Table 3; 100 mg/l in Columbia agar, 24 h 37° C., UV 360-365 nm
# Procedure: as §1, §2, §3
# [12] = test system: Escherichia coli NCTC 10418; format: cell-based; parameters: key: − = no fluorescence detected; +/− = weak fluorescence; + = medium fluorescence; ++ = strong fluorescence; settings: Table 3; 100 mg/l in Columbia agar, 24 h 37° C., UV 360-365 nm
# Procedure: as §1, §2, §3
# [13] = test system: Enterococcus faecium NCTC 7171; format: cell-based; parameters: key: − = no fluorescence detected; +/− = weak fluorescence; + = medium fluorescence; ++ = strong fluorescence; settings: Table 3; 100 mg/l in Columbia agar, 24 h 37° C., UV 360-365 nm
# Procedure: as §1, §2, §3
# [14] = test system: Serratia marcescens NCTC 10211; format: cell-based; parameters: key: − = no fluorescence detected; +/− = weak fluorescence; + = medium fluorescence; ++ = strong fluorescence; settings: Table 3; 100 mg/l in Columbia agar, 24 h 37° C., UV 360-365 nm
# Procedure: as §1, §2, §3
# [15] = test system: Citrobacter freundii 46262 (wild); format: cell-based; parameters: key: − = no fluorescence detected; +/− = weak fluorescence; + = medium fluorescence; ++ = strong fluorescence; settings: Table 3; 100 mg/l in Columbia agar, 24 h 37° C., UV 360-365 nm
# Procedure: as §1, §2, §3
# [16] = test system: Enterococcus faecalis NCTC 775; format: cell-based; parameters: key: − = no fluorescence detected; +/− = weak fluorescence; + = medium fluorescence; ++ = strong fluorescence; settings: Table 3; 100 mg/l in Columbia agar, 24 h 37° C., UV 360-365 nm
# Procedure: as §1, §2, §3
# [17] = test system: Morganella morganii 462403 (wild); format: cell-based; parameters: key to Intensity of fluorescence, Morganella morganii 462403 / F: fluorescence (intensity), Morganella morganii 462403 (wild) / Intensity of the fluorescence, Morganella morganii 462403 (wild): − = no fluorescence detected; +/− = weak fluorescence; + = medium fluorescence; ++ = strong fluorescence; settings: Table 3; 100 mg/l in Columbia agar, 24 h 37° C., UV 360-365 nm
# Procedure: as §1, §2, §3
# [18] = test system: Salmonella typhimurium NCTC 74; format: cell-based; parameters: key to Intensity of fluorescence, Salmonella typhimurium NCTC 74 / F: fluorescence (intensity), Salmonella typhimurium NCTC 74 / Intensity of the fluorescence, Salmonella typhimurium NCTC 74: − = no fluorescence detected; +/− = weak fluorescence; + = medium fluorescence; ++ = strong fluorescence; settings: Table 3; 100 mg/l in Columbia agar, 24 h 37° C., UV 360-365 nm
# Procedure: as §1, §2, §3
# [19] = test system: Candida glabrata NCPF 3943; format: cell-based; parameters: key to Intensity of fluorescence, Candida glabrata NCPF3943 / F: fluorescence (intensity), Candida glabrata NCPF 3943 / Intensity of the fluorescence, Candida glabrata NCPF 3943: − = no fluorescence detected; +/− = weak fluorescence; + = medium fluorescence; ++ = strong fluorescence; settings: 100 mg/l in Columbia agar, 24 h 37° C.
# Procedure: as §1, §2, §3
# MRSA NCTC 11939 = format: cell-based, Staphylococcus aureus; parameters: key: − = no fluorescence detected; +/− = weak fluorescence; + = medium fluorescence; ++ = strong fluorescence; settings: Table 3; 100 mg/l in Columbia agar, 24 h 37° C., UV 360-365 nm
# Procedure: as §1, §2, §3
compound,measurement,setting,value
O=[N+]([O-])c1ccccc1-c1nc2ccccc2o1 [Substrate 1],"F: fluorescence (intensity), Bacillus subtilis NCTC 9372",[1],−
same,"F: fluorescence (intensity), Staphylococcus epidermidis NCTC 11047",[2],+
same,"F: fluorescence (intensity), Yersinia enterocolitica NCTC 11176",[3],++
same,"F: fluorescence (intensity), Candida albicans ATCC 90028",[4],−
same,"F: fluorescence (intensity), Listeria monocyto genes NCTC 11994",[5],++
same,"F: fluorescence (intensity), Staphylococcus aureus NCTC 6571",[6],++
same,"F: fluorescence (intensity), Providencia rettgeri NCTC 7475",[7],++
same,"F: fluorescence (intensity), Burkholderia cepacia 1222",[8],++
same,"F: fluorescence (intensity), Enterobacter cloacae NCTC 11936",[9],++
same,"F: fluorescence (intensity), Pseudomonas aeruginosa NCTC 10662",[10],++
same,"F: fluorescence (intensity), Streptococcus pyogenes NCTC 8306",[11],+
same,"F: fluorescence (intensity), Escherichia coli NCTC 10418",[12],++
same,"F: fluorescence (intensity), Enterococcus faecium NCTC 7171",[13],+
same,"F: fluorescence (intensity), Serratia marcescens NCTC 10211",[14],++
same,"F: fluorescence (intensity), Citrobacter freundii 46262 (wild)",[15],++
same,"F: fluorescence (intensity), Enterococcus faecails NCTC 775",[16],++
same,"F: fluorescence (intensity), Morganella morganii 462403 (wild)",[17],++
same,"F: fluorescence (intensity), Salmonella typhimurium NCTC 74",[18],++
same,"G: growth, Candida glabrata NCPF 3943",[19],No G
same,"F: fluorescence (intensity), Candida glabrata NCPF 3943","[19]; Table 3, UV 360-365 nm",−
same,"F: fluorescence (intensity), MRSA NCTC 11939",MRSA NCTC 11939,++
